These results are taken from patent US20020081574A1, “Methods for identifying inhibitors of helicase C virus” (priority 1996, published 2002).

The target of one assay is T1, HCV NS3 RNA helicase (Hepatitis C virus genotype 1a, UniProt P27958).
T1 construct: derived from the full length, native polypeptide (residues 1027-1657); made in house; host or cells: Spodoptera frugiperda Sf9 cells, recombinant baculovirus bacNS3-5B (polyprotein residues 1027-3011 expressed and processed)
It is filed as biochemical. The note with it: for helicase activity levels reduced when substituting for Mn^+2: divalent cation tested at 3 mM.

In another assay the test system is HCV. Particulars: cited from earlier work.

T1 sequence (P27958 1027-1657): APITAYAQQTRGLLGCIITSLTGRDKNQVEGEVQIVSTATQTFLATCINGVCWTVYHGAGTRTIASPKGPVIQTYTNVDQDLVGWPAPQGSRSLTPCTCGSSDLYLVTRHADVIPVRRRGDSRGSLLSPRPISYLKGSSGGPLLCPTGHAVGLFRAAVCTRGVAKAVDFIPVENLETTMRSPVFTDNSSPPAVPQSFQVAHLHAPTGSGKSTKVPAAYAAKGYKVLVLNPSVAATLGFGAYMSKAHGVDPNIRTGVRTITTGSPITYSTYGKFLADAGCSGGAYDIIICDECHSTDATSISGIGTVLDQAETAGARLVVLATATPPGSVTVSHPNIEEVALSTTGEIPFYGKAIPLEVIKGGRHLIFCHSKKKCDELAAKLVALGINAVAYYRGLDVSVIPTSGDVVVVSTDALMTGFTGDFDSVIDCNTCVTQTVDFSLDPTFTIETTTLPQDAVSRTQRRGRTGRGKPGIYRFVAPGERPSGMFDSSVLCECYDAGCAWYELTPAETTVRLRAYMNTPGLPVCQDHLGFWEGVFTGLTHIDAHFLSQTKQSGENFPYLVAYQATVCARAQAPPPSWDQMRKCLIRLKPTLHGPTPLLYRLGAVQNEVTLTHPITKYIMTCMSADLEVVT

In the case of `[Na+]` [Na^+], the “effect of monovalent cations on HCV NS3 helicase activity” value on HCV NS3 RNA helicase is “inhibit”.
The same measure, in the same setting: the result for `[K+]` [K^+] reads “inhibit”.
In the case of `[Cu+2]` [Cu^+2], on HCV NS3 RNA helicase, the “helicase activity levels reduced when substituting for Mn^+2” value (“helicase activity levels reduced” for short) amounted to 7 fold.
As to `[Ca+2]` [Ca^+2], at HCV NS3 RNA helicase, the “helicase activity levels reduced” value was determined as 3 fold.
Consider `[Zn+2]` [Zn^+2], for which, at HCV NS3 RNA helicase, the “helicase activity levels reduced” value was determined as 2 fold.
For interferon alpha [IFN-α], the “improved serum liver enzyme response” value in the assay on HCV (IFN treatment) is reported as 20-40 % of patients. The “sustained improvement of aminotransferase levels” value in the assay on HCV (responders) is 10-20 % of patients.
